# Source: patent publication US9187768B2, “Alcoholic fermentation yeast and method for producing ethanol using same” (NIPPON STEEL & SUMIKIN ENGINEERING CO., LTD., priority 2010, dated 2015)
# System: general yeast
# Experiment: Ethanol fermentation by a general yeast with limonene added to YPD culture medium
# Assay type: cell-based, Saccharomyces Cerevisiae
# Conditions: 0.1% v/v of limonene added
# Description: Generally, yeast is present in a sugar solution as fine solid particles and easily adsorbs oily substances. Therefore, the reason for the above-described experimental results may be that the limonene (in an oil form) added in a small amount (0.05% v/v) adsorbed to the yeast, causing fermentation inhibition. To remove limonene, which is a fermentation inhibitor, from a juice residue extract, limonene in a solid form, which accounts for 75% or larger of the total amount of limonene, must be removed, and limonene in a micelle form present as a light liquid (an oily substance) must also be removed. […] Therefore, fermentability tended to be unstable due to the influence of contamination etc. and it was difficult to maintain high fermentability over a long period of time.
smiles,measurement,value
C=C(C)[C@H]1CC=C(C)CC1 [limonene],rate of ethanol production,about 20%
